Measured values taken from US7915291B2, “Hepatitis C virus inhibitors” (Bristol-Myers Squibb Company, priority 2002, dated 2011).
Where two headings read alike, the source gives them in different places.

Tests used:
[1] = biological target: HCV NS3/4A protease complex, BMS strain (UniProt P27958, C1454S/C1711G, species not given/STRAIN_BMS); experiment: Recombinant HCV NS3/4A protease complex FRET peptide assay (BMS strain); assay type: biochemical, HCV genotype 1a
Summary of the method: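 Percent inhibition taken from the linear-range fluorescence slope relative to uninhibited control, read kinetically for about 15 min at 25° C. Enzyme (2-3 nM, BMS NS3/4A complex, lysine-tailed, Ni-NTA purified) met compound for 1 min before 2 μM FRET depsipeptide substrate started cleavage.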

[2] = system: HCV replicon in Huh7 cells; experiment: HCV replicon cell-based assay; parameters: species or system HCV strain 1B; conditions: Hepatitis C virus
[3] = NS3/4A BMS strain; read-out: IC50 range
[4] = Huh-7, HCV replicon, Huh7 cells, read-out: EC50 range
[5] = read-out: IC50 range; NS3/4A BMS strain

| SMILES | IC50 [1, 3] [nM] | EC50 [2, 4] [nM] | IC50 [1, 5] [nM] | EC50 ([2]; Huh-7, read-out: EC50 range) [nM] |
| --- | --- | --- | --- | --- |
| C=C[C@@H]1C[C@]1(NC(=O)[C@@H]1CC(Oc2nc(-c3ccccc3)cc3ccccc23)CN1C(=O)[C@@H](NC(=O)OC(C)(C)C)[C@H](C)OC)C(=O)NS(=O)(=O)C1CC1 (stereo partly drawn) [Compound 108] | < 100 | < 100 |  |  |
| C=C[C@@H]1C[C@]1(NC(=O)[C@@H]1C[C@@H](Oc2ccc3ccccc3n2)CN1C(=O)[C@@H](NC(=O)OC(C)(C)C)C(C)(C)C)C(=O)NS(=O)(=O)C1CC1 [Compound 7] | < 100 | 100 to 1000 |  |  |
| C=C[C@@H]1C[C@]1(NC(=O)[C@@H]1C[C@@H](Oc2nccc3c(OC)cccc23)CN1C(=O)[C@@H](NC(=O)OC(C)(C)C)C(C)(C)C)C(=O)NS(=O)(=O)C1CC1 [Compound 253] | < 100 | < 100 |  |  |
| C=C[C@@H]1C[C@]1(NC(=O)[C@@H]1C[C@@H](Oc2nccc3cc(OC)ccc23)CN1C(=O)[C@@H](NC(=O)OC(C)(C)C)c1ccccc1)C(=O)NS(=O)(=O)C1CC1 [Compound 134] | < 100 | 100 to 1000 |  |  |
| C=C[C@@H]1C[C@]1(NC(=O)[C@@H]1C[C@@H](Oc2nccc3ccccc23)CN1C(=O)[C@@H](NC(=O)Oc1ccc(C)cc1)C(C)(C)C)C(=O)NS(=O)(=O)C1CC1 [Compound 120] | < 100 | 100 to 1000 |  |  |
| C=C[C@@H]1C[C@]1(NC(=O)[C@@H]1C[C@@H](Oc2nc(-c3ccc(C#N)cc3)cc3ccccc23)CN1C(=O)[C@@H](NC(=O)OC(C)(C)C)C(C)(C)C)C(=O)NS(=O)(=O)C1CC1 [Compound 29] | < 100 | < 100 |  |  |
| C=C[C@@H]1C[C@]1(NC(=O)[C@@H]1CC(Oc2nccc3cc(OC)ccc23)CN1C(=O)[C@H](CCC)N(C)C(=O)OC(C)(C)C)C(=O)NS(=O)(=O)C1CC1 (stereo partly drawn) [Compound 88] | 1000 to 10000 | 10000 to 100000 |  |  |
| C=C[C@@H]1C[C@]1(NC(=O)[C@@H]1C[C@@H](Oc2nccc3cc(OC)ccc23)CN1C(=O)[C@@H](NC(=O)OC(C)(C)C)[C@H](C)OCC)C(=O)NS(=O)(=O)C1CC1 [Compound 96] |  | < 100 | < 100 |  |
| C=C[C@@H]1C[C@]1(NC(=O)[C@@H]1CC(Oc2nccc3cc(OC)ccc23)CN1C(=O)[C@@H](NC(=O)OC(C)(C)C)C(C)(C)O)C(=O)NS(=O)(=O)C1CC1 (stereo partly drawn) [Compound 89] | < 100 | < 100 |  |  |
| C=CC1CC1(NC(=O)[C@@H]1C[C@@H](Oc2cc(-c3ccccc3)nc3c(C)noc23)CN1C(=O)[C@@H](NC(=O)OC(C)(C)C)C(C)(C)C)C(=O)NS(=O)(=O)C1CC1 (stereo partly drawn) [Compound 10] | < 100 | < 100 |  |  |
| C=CC1C[C@]1(NC(=O)[C@@H]1C[C@@H](Oc2nccc3cc(F)ccc23)CN1C(=O)[C@@H](NC(=O)OC(C)(C)C)C(C)(C)C)C(=O)NS(=O)(=O)C1CC1 (stereo partly drawn) [Compound 187, BOCNH-P3(L-tert-BuGly)-P2[(4R)-(6-fluoro isoquinolin-1-oxo)-S -proline]-P1(1R,2S Vinyl Acca)-CONHSO2-Cyclopropane] | < 100 | 100 to 1000 |  |  |
| C=C[C@@H]1C[C@]1(NC(=O)[C@@H]1C[C@@H](Oc2nccc3cc(OC)ccc23)CN1C(=O)[C@@H](NC(=O)OC(C)(C)C)[C@H](C)O)C(=O)NS(=O)(=O)C1CC1 [Compound 95] | < 100 | 100 to 1000 |  |  |
| C=C[C@@H]1C[C@]1(NC(=O)[C@@H]1C[C@@H](Oc2ccnc3cc(Cl)ccc23)CN1C(=O)[C@@H](NC(=O)OC1CCCC1)C(C)(C)C)C(=O)NS(=O)(=O)C1CC1 [Compound 372] | < 100 | < 100 |  |  |
| C=C[C@@H]1C[C@]1(NC(=O)[C@@H]1C[C@@H](Oc2nccc3cc(OC)ccc23)CN1C(=O)[C@@H](NC(=O)OC(C)(C)C)[C@@H](C)OCc1ccccc1)C(=O)NS(=O)(=O)C1CC1 [Compound 110] | < 100 | 100 to 1000 |  |  |
| C=CC1C[C@]1(NC(=O)[C@@H]1C[C@@H](Oc2nc(-c3cccc(N(C)C)c3)cc3cc(OC)ccc23)CN1C(=O)[C@@H](NC(=O)OC(C)(C)C)C(C)(C)C)C(=O)NS(=O)(=O)C1CC1 (stereo partly drawn) [Compound 330] | < 100 | < 100 |  |  |
| C=C[C@@H]1C[C@]1(NC(=O)[C@@H]1C[C@@H](Oc2nccc3cc(OC)ccc23)CN1C(=O)[C@@H](NC(=O)N[C@@H](Cc1c[nH]cn1)C(=O)OC)C(C)(C)C)C(=O)NS(=O)(=O)C1CC1 [Compound 147] | < 100 | 1000 to 10000 |  |  |
| C=C[C@@H]1C[C@]1(NC(=O)[C@@H]1C[C@@H](Oc2nccc3cc(Br)ccc23)CN1C(=O)[C@@H](NC(=O)OC(C)(C)C)C(C)(C)C)C(=O)NS(=O)(=O)C1CC1 [Compound 22] | < 100 | 100 to 1000 |  |  |
| C=C[C@@H]1C[C@]1(NC(=O)[C@@H]1C[C@@H](Oc2ccnc(-c3ccc(F)cc3)c2)CN1C(=O)[C@@H](NC(=O)OC1CCCC1)C(C)(C)C)C(=O)NS(=O)(=O)C1CC1 [Compound 427] | < 100 | 100 to 1000 |  |  |

| SMILES | IC50 [1, 3] [nM] | EC50 [2, 4] [nM] | IC50 [1, 5] [nM] | EC50 ([2]; Huh-7, read-out: EC50 range) [nM] |
| --- | --- | --- | --- | --- |
| C=C[C@@H]1C[C@]1(NC(=O)[C@@H]1C[C@@H](Oc2nc(-c3ccccc3)cc3cc(OC)ccc23)CN1C(=O)[C@@H](NC(=O)OC(C)(C)C)C(C)(C)C)C(=O)NS(=O)(=O)C1CC1 [Compound 36] |  |  | < 100 | < 100 |
| C=C[C@@H]1C[C@]1(NC(=O)[C@@H]1C[C@@H](Oc2ncc(Cl)c3ccc(OC)cc23)CN1C(=O)[C@@H](NC(=O)OC(C)(C)C)C(C)(C)C)C(=O)NS(=O)(=O)C1CC1 [Compound 284] | 100 to 1000 | 10000 to 100000 |  |  |
| C=CC1C[C@]1(NC(=O)[C@@H]1C[C@@H](Oc2nccc3cc(CC)ccc23)CN1C(=O)[C@@H](NC(=O)OC(C)(C)C)C(C)(C)C)C(=O)NS(=O)(=O)C1CC1 (stereo partly drawn) [Compound 189, BOCNH-P3(L-tert-BuGly)-P2[(4R)-(6-ethyl isoquinolin-1-oxo)-S -proline]-P1(1R,2S Vinyl Acca)-CONHSO2-Cyclopropane] | < 100 | 100 to 1000 |  |  |
| C=C[C@@H]1CC1(NC(=O)[C@@H]1CC(Oc2nccc3cc(OC)ccc23)CN1C(=O)[C@@H](NC(=O)CC1CC1)C(C)(C)C)C(=O)NS(=O)(=O)C1CC1 (stereo partly drawn) [Compound 58] |  | < 100 | < 100 |  |
| C=C[C@@H]1C[C@]1(NC(=O)[C@@H]1C[C@@H](Oc2nccc3cc(OC)ccc23)CN1C(=O)[C@@H](NC(=O)OC)C(C)(C)C)C(=O)NS(=O)(=O)C1CC1 [Compound 16] | < 100 | 100 to 1000 |  |  |
| C=C[C@@H]1C[C@]1(NC(=O)[C@@H]1C[C@@H](Oc2ccnc3ccccc23)CN1C(=O)[C@@H](NC(=O)OC(C)(C)C)C(C)(C)C)C(=O)NS(C)(=O)=O [Compound 386] | 100 to 1000 | 1000 to 10000 |  |  |
| C=C[C@@H]1C[C@]1(NC(=O)[C@@H]1C[C@@H](Oc2cc(-c3ccccn3)nc3cc(OC)ccc23)CN1C(=O)[C@@H](NC(=O)OC(C)(C)C)C(C)(C)C)C(=O)NS(=O)(=O)C1CC1 [Compound 379] | < 100 | < 100 |  |  |
| C=C[C@@H]1C[C@]1(NC(=O)[C@@H]1C[C@@H](Oc2cc(-c3ccccc3)nc(-c3cccs3)c2)CN1C(=O)[C@@H](NC(=O)OC(C)(C)C)C(C)(C)C)C(=O)NS(=O)(=O)C1CC1 [Compound 413] | < 100 | < 100 |  |  |
| C=CC1CC1(NC(=O)[C@@H]1C[C@@H](Oc2cc(C(F)(F)F)nc3nc(C)ccc23)CN1C(=O)[C@@H](NC(=O)OC(C)(C)C)C(C)(C)C)C(=O)NS(=O)(=O)C1CC1 (stereo partly drawn) [Compound 8] | 100 to 1000 | 1000 to 10000 |  |  |
| C=C[C@@H]1C[C@]1(NC(=O)[C@@H]1C[C@@H](Oc2cc(C3CC3)nc3cc(OC)ccc23)CN1C(=O)[C@@H](NC(=O)OC(C)(C)C)C(C)(C)C)C(=O)NS(=O)(=O)C1CC1 [Compound 373] | < 100 | < 100 |  |  |
| CC[C@@H]1C[C@]1(NC(=O)[C@@H]1C[C@@H](Oc2nccc3c(C(F)(F)F)cccc23)CN1C(=O)[C@@H](NC(=O)OC(C)(C)C)C(C)(C)C)C(=O)NS(=O)(=O)C1CC1 [Compound 295] | 100 to 1000 | 1000 to 10000 |  |  |
| C=C[C@@H]1C[C@]1(NC(=O)[C@@H]1CC(Oc2nccc3cc(OC)ccc23)CN1C(=O)[C@@H](NC(=O)NC(C)(C)CC(C)(C)C)C(C)(C)C)C(=O)NS(=O)(=O)C1CC1 (stereo partly drawn) [Compound 81] | < 100 | 100 to 1000 |  |  |
| C=C[C@@H]1C[C@]1(NC(=O)[C@@H]1C[C@@H](Oc2nc(-c3ccoc3)cc3cc(OC)ccc23)CN1C(=O)[C@@H](NC(=O)OC(C)(C)C)C(C)(C)C)C(=O)NS(=O)(=O)C1CC1 [Compound 41] | < 100 | < 100 |  |  |
| C=CC1C[C@]1(NC(=O)[C@@H]1C[C@@H](Oc2nccc3occc23)CN1C(=O)[C@@H](NC(=O)OC(C)(C)C)C(C)(C)C)C(=O)NS(=O)(=O)C1CC1 (stereo partly drawn) [Compound 233] | 100 to 1000 | 100 to 1000 |  |  |
| C=C[C@@H]1C[C@]1(NC(=O)[C@@H]1C[C@@H](Oc2nccc3cc(OC)ccc23)CN1C(=O)[C@H](CC(=O)OC)NC(=O)OC(C)(C)C)C(=O)NS(=O)(=O)C1CC1 [Compound 138] | < 100 | < 100 |  |  |
| C=C[C@@H]1C[C@]1(NC(=O)[C@@H]1C[C@@H](Oc2nc(-c3ccccc3)cc3ccccc23)CN1C(=O)[C@@H](NC(=O)OC(C)(C)C)C(C)(C)C)C(=O)NS(=O)(=O)C1CC1 [Compound 25] | < 100 | < 100 |  |  |
| C=CC1C[C@]1(NC(=O)[C@@H]1C[C@@H](Oc2nc(Br)c(OC)c3ccccc23)CN1C(=O)[C@@H](NC(=O)OC(C)(C)C)C(C)(C)C)C(=O)NS(=O)(=O)C1CC1 (stereo partly drawn) [Compound 223] | < 100 | < 100 |  |  |
| C=CC1C[C@]1(NC(=O)[C@@H]1C[C@@H](Oc2nccc3cc(OC(C)(C)C)ccc23)CN1C(=O)[C@@H](NC(=O)OC(C)(C)C)C(C)(C)C)C(=O)NS(=O)(=O)C1CC1 (stereo partly drawn) [Compound 193, BOCNH-P3(L-tert-BuGly)-P2[(4R)-(6-tert-butoxy isoquinolin-1-oxo)-S-proline]-P1(1R,2S Vinyl Acca)-CONHSO2-Cyclopropane] | < 100 | 100 to 1000 |  |  |
